The record followed here is patent US4331670A (priority 1979, dated 1982).

Molecules are shown by their SMILES.

Assay [1] concerns Collectotrichum lagenarium. The experiment in a line: Test 3: protective value on cucumber inoculated with Collectotrichum lagenarium. The class given is in vivo, Collectotrichum lagenarium (cucumber plant, Suyo). The conditions noted are these: 500 ppm, 10 ml sprayed; lesions six days after inoculation. The method, then:
In each unglazed pot having a diameter of 9 cm, cucumber plant (Suyo) was cultured. At one leaf stage, 10 ml. of each solution of each active ingredient having a concentration of 500 ppm was sprayed by a spray gun. After maintaining the pot in a green-house at 24° to 25° C. for one day, each spore suspension of Collectotrichum lagenarium was sprayed. Six days after the inoculation, number of lesions on the first leaf of seedling was observed. The protective value was calculated as Test 1.

For a further assay, the system named is Sphaerotheca fuliginea. Kind of assay: whole plant or invertebrate. It is filed as in vivo, Sphaerotheca fuliginea (cucumber plant, Suyo). Conditions: Podosphaera fuliginea, in Cucumis sativus, 240 h; read-out: Protective value.
For another assay, the system named is Pyricularia orzae. Kind of assay: whole plant or invertebrate. It is filed as in vivo, Pyricularia orzae (rice plant, Chukyo Asahi). The conditions noted are these: in Oryza sativa, 120 h, read-out: Protective value.
A further assay concerns Botrytis cinerea. Kind of assay: Test 9: protective value on cucumber inoculated with Botrytis cinerea. The class given is in vivo, Botrytis cinerea (cucumber plant, Suyo). The conditions noted are these: 72 h, 250 ppm, 10 ml sprayed, lesion length three days after inoculation. How it is done: In each unglazed pot having a diameter of 9 cm, cucumber plant (Suyo) was cultured. At one leaf stage, 10 ml. of each solution of each active ingredient having a concentration of 250 ppm was sprayed by a spray gun. After maintaining the pot in a green-house at 24° to 25° C. for one day, a disc (punched agar disc) obtained by culturing Botrytis cinerea on a potato-glucose-agar medium (PDA medium) was put on the leaf of cucumber to inoculate them. Three days after the inoculation, lengths of lesions were measured and each protective value was calculated as Test 2.
In accordance with the test, except the concentration of the active ingredient was decreased, the comparative tests of Compound No. 7 and Reference compound were carried out.

A further assay deals with Rhizoctonia solani. The experiment in a line: whole plant or invertebrate. The class given is in vivo, Rhizoctonia solani (rice plant, Chukyo Asahi). Conditions: in Oryza sativa, 120 h, read-out: Preventive value.
The next assay has as its system Plasmopara viticola. The experiment in a line: whole plant or invertebrate. It is filed as in vivo, Plasmopara viticola (cucumber plant, Suyo). The conditions noted are these: in Cucumis sativus, 144 h, read-out: Protective value.
A further assay relates to Tetranychus telarius (L). The experiment in a line: Test 6: mortality of larvae and adults of Tetranychus telarius on kidney bean leaf. The class given is in vivo. The conditions noted are these: foliar, 72 h, leaf dipped, wettable powder of Composition No. 5, three days after treatment, read-out: Percent mortality. How it is done: Young seedling of kidney bean treated to cut off leaves except one primordial leaf was transplanted in a cup and about 30 of larvae and adults of Tetranychus telarius (L) were inoculated on the primordial leaf. This was dipped for 10 seconds in each solution obtained by diluting each wettable powder of Composition No. 5 containing each active ingredient with water at the concentration of 800 ppm and was dried in air and was kept in a constant temperature chamber with lighting at 28° C. Three days after the treatment, mortality was measured and each percent mortality was calculated as follows. [formula]

The compound `O=[N+]([O-])c1cc(C(F)(F)F)c(Cl)c([N+](=O)[O-])c1Nc1ccc(Cl)nc1Cl` [compound 14] yielded a Protective value in assay [1] of 100%. Also, in the assay with Sphaerotheca fuliginea, the pest or weed control at 500 ppm was found to be 95%. For the same compound, the pest or weed control at 100 ppm in the assay with Pyricularia orzae and in the assay on Rhizoctonia solani was 100% in each case. For the same compound, the pest or weed control at 250 ppm with Botrytis cinerea was determined as 95%.
In the case of `O=[N+]([O-])c1cc(C(F)(F)F)c(Cl)c([N+](=O)[O-])c1Nc1nc(Cl)c(C(F)(F)F)cc1Br` [compound 33], the pest or weed control at 500 ppm in the assay on Plasmopara viticola worked out at 85%; with Sphaerotheca fuliginea, 100%. Further, the pest or weed control at 100 ppm in the assay on Pyricularia orzae and in the assay on Rhizoctonia solani was 100% throughout. Also, the pest or weed control at 250 ppm with Botrytis cinerea came to 100%.
As to `O=[N+]([O-])c1cc(C(F)(F)F)c(Cl)c([N+](=O)[O-])c1Nc1ncc(Br)cc1Cl` [compound 20], in the assay with Plasmopara viticola, the pest or weed control at 500 ppm was 100%. In addition, in the assay with Pyricularia orzae, the pest or weed control at 100 ppm was found to be 100%.
For the compound `Cc1nc(Nc2c([N+](=O)[O-])cc(C(F)(F)F)c(Cl)c2[N+](=O)[O-])c(Cl)cc1Cl` [compound 8, N-(3,5-dichloro-6-methyl-2-pyridyl)2,6-dinitro-3-chloro-4-trifluoromethylaniline], the Protective value in assay [1] was found to be 100%. In addition, the results for the pest or weed control at 100 ppm in the assay on Pyricularia orzae and in the assay on Rhizoctonia solani were 100% and 90%, respectively.
With `O=[N+]([O-])c1cc(C(F)(F)F)cc([N+](=O)[O-])c1Nc1nc(Cl)c(C(F)(F)F)cc1Cl` [compound 34], the pest or weed control at 500 ppm with Plasmopara viticola came to 83%; in the assay on Sphaerotheca fuliginea, 100%. Besides, the pest or weed control at 100 ppm in the assay with Pyricularia orzae and with Rhizoctonia solani was 100% each time. In addition, in the assay on Tetranychus telarius (L), the mortality at 800 ppm amounted to 100%. The same compound returned a pest or weed control at 250 ppm in the assay with Botrytis cinerea of 100%.
In assay [1], `O=[N+]([O-])c1cc(C(F)(F)F)cc([N+](=O)[O-])c1Nc1nc(Cl)c(Br)cc1C(F)(F)F` [compound 26] came in with a Protective value of 90%. For the same compound, the pest or weed control at 500 ppm amounted to 93% in the assay on Plasmopara viticola and 100% in the assay with Sphaerotheca fuliginea. Besides, the pest or weed control at 100 ppm in the assay on Pyricularia orzae and with Rhizoctonia solani was 100% throughout. Moreover, in the assay on Tetranychus telarius (L), the mortality at 800 ppm worked out at 100%. Besides, the pest or weed control at 250 ppm in the assay on Botrytis cinerea came out at 85%.
As for `CC(=O)N(c1ncc(C(F)(F)F)cc1Cl)c1c([N+](=O)[O-])cc(C(F)(F)F)c(Cl)c1[N+](=O)[O-]` [compound 88, N-acetyl-N-(3-chloro-5-trifluoromethyl-2-pyridyl)-2,6-dinitro-3-chloro-4-trifluoromethylaniline], in the assay with Plasmopara viticola, the pest or weed control at 500 ppm was 100%. The pest or weed control at 100 ppm in the assay on Rhizoctonia solani worked out at 100%.
